Reference: patent US4737510A, “Bioactive metabolites from the caribbean sponge agelas coniferin” (priority 1986, dated 1988)
“And” between values parts separate entries of the source, which are not always exact repeats. Identical values can stand only once. Like-named read-outs stand apart in the source and are kept apart here.

Key:
[1] = tested on: KB carcinoma; conditions: cited from earlier work
[2] = tested on: Balanus amphitrite amphitrite; assay: Barnacle settlement assay, inhibition; type: in vivo, Balanus amphitrite amphitrite (barnacle); conditions: Amphibalanus amphitrite
[3] = tested on: Balanus amphitrite amphitrite; assay: Barnacle settlement assay, facilitation; type: in vivo, Balanus amphitrite amphitrite (barnacle); conditions: Amphibalanus amphitrite
[4] = tested on: Herpes simplex virus, type I (HSV-1); assay: microbe, parasite or virus in culture; type: cell-based; conditions: for zone of inhibition at 20 µg/disc / zone of inhibition at 50 µg/disc / zone of inhibition at 100 µg/disc / zone of inhibition at 200 µg/disc: Human alphaherpesvirus 1, in Primates
[5] = tested on: Monkey Kidney Cells (CV-1); assay: Cytotoxicity to monkey kidney cells (CV-1) determined by Dr. R. G. Hughes, Jr.; conditions: 8 or less essentially indicates noncytotoxicity
[6] = tested on: Herpes Simplex Virus type 1 (HSV-1); assay: Antiviral activity against HSV-1 determined by Dr. R. G. Hughes, Jr.;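 also: grades: +++ strong ++ moderate + light ± questionable - negative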; type: cell-based
[7] = tested on: E. coli strain BR339; type: cell-based
[8] = tested on: vesicular stomatitis virus (VSV); assay: microbe, parasite or virus in culture; type: cell-based; conditions: for zone of inhibition at 20 µg/disc / zone of inhibition at 50 µg/disc / zone of inhibition at 100 µg/disc / zone of inhibition at 200 µg/disc: Vesicular stomatitis virus, in Primates
[9] = tested on: Escherichia coli; assay: Disc diffusion antimicrobial assay, Escherichia coli; type: cell-based; conditions: for zone of inhibition at 10 µg/disc / zone of inhibition at 50 µg/disc / zone of inhibition at 100 µg/disc: Escherichia coli, 6.5 mm disc, read-out: diameter of the clear zone of inhibition; for zone of inhibition at 50 µg/disc: 50 μg/disk
[10] = tested on: Bacillus subtilis; assay: Disc diffusion antimicrobial assay, Bacillus subtilis; type: cell-based; conditions: for zone of inhibition at 10 µg/disc / zone of inhibition at 50 µg/disc / zone of inhibition at 100 µg/disc: Bacillus subtilis, 6.5 mm disc, read-out: diameter of the clear zone of inhibition; for zone of inhibition at 50 µg/disc: 50 μg/disk; for zone of inhibition at 100 µg/disc: 100 μg/disk
[11] = tested on: serotonergic receptor; conditions: cited from earlier work
[12] = tested on: monkey kidney (CV-1) cells; assay: Cytotoxicity to monkey kidney (CV-1) cells
[13] = tested on: vesicular stomatitus virus (VSV); type: cell-based; conditions: 100 μg/disk
[14] = Stability of isolated solids; type: physicochemical; conditions: diacetate salts, amorphous solids
[15] = Water solubility (in words); type: physicochemical; conditions: relative to 1a-6a
[16] = read-out: antiviral activity, HSV-1, ++ scale
[17] = read-out: antiviral activity, HSV-1, zone diameter
[18] = read-out: antiviral activity, VSV, ++ scale
[19] = read-out: antiviral activity, VSV, zone diameter

Question: For `N=C(N)NC(=O)c1cc(Br)c[nH]1` [N-amidino-4-bromopyrrole-2-carboxamide], which “effect on KB carcinoma” value [1] is on record?
Answer: KB carcinoma-altering

Question: With `Nc1ncc([C@@H]2[C@@H](CNC(=O)c3cc(Br)c[nH]3)[C@H](CNC(=O)c3cc(Br)c[nH]3)[C@H]2c2cnc(N)[nH]2)[nH]1` (relative stereo) [Compound 2a, Sceptrin Acetate] as the compound, how does the EC50 [2] read?
Answer: 44 µg/mL

Question: And the EC50 [3]?
Answer: 0.029 µg/mL

Question: What about the zone of inhibition at 20 µg/disc [4, 16] of the same compound?
Answer: 11 to 15 mm

Question: What about the zone of inhibition at 50 µg/disc [4, 16] of the same compound?
Answer: 11 to 15 mm

Question: What about the zone of inhibition at 100 µg/disc [4, 16] of the same compound?
Answer: 11 to 15 mm

Question: And the zone of inhibition at 200 µg/disc [4, 16]?
Answer: > 16 mm

Question: And the zone of inhibition at 20 µg/disc [4, 17]?
Answer: 11 mm

Question: What about the zone of inhibition at 50 µg/disc [4, 17] of the same compound?
Answer: 13 mm

Question: And the zone of inhibition at 100 µg/disc [4, 17]?
Answer: 13 mm

Question: And the zone of inhibition at 200 µg/disc [4, 17]?
Answer: 21 mm

Question: What about the “cytotoxicity, zone diameter” value ([5]; 25 μg/disk) of the same compound?
Answer: 5 mm

Question: And the “cytotoxicity, zone diameter” value ([5]; 50 μg/disk)?
Answer: 5 mm

Question: And the “cytotoxicity, zone diameter” value ([5]; 100 μg/disk)?
Answer: 7 mm

Question: And the HSV-1 activity ([6]; 25 μg/disk)?
Answer: -

Question: And the HSV-1 activity ([6]; 50 μg/disk)?
Answer: +++

Question: What about the HSV-1 activity ([6]; 100 μg/disk) of the same compound?
Answer: ++

Question: What about the “BIA activity” value [7] of the same compound?
Answer: inducers

Question: What about the “BIA activity, numerical color intensity scale 0-10” value [7] of the same compound?
Answer: 9 and 6

Question: And the zone of inhibition at 20 µg/disc [8, 18]?
Answer: 7 mm

Question: And the zone of inhibition at 50 µg/disc [8, 18]?
Answer: 8 to 10 mm

Question: And the zone of inhibition at 100 µg/disc [8, 18]?
Answer: 11 to 15 mm

Question: What about the zone of inhibition at 200 µg/disc [8, 18] of the same compound?
Answer: 11 to 15 mm

Question: And the zone of inhibition at 20 µg/disc [8, 19]?
Answer: 7 mm

Question: And the zone of inhibition at 50 µg/disc [8, 19]?
Answer: 8 mm

Question: And the zone of inhibition at 100 µg/disc [8, 19]?
Answer: 11 mm

Question: What about the zone of inhibition at 200 µg/disc [8, 19] of the same compound?
Answer: 13 mm

Question: And the “activity against Escherichia coli” value ([9]; 10 μg/disk)?
Answer: active

Question: What about the zone of inhibition at 10 µg/disc ([9]; 10 μg/disk) of the same compound?
Answer: 7 mm

Question: And the zone of inhibition at 50 µg/disc [9]?
Answer: 10 mm

Question: What about the zone of inhibition at 100 µg/disc ([9]; 100 μg/disk) of the same compound?
Answer: 11 mm

Question: And the “growth inhibition of Bacillus subtilis” value ([10]; 10 μg/disk)?
Answer: most active

Question: What about the zone of inhibition at 10 µg/disc ([10]; 10 μg/disk) of the same compound?
Answer: 9 mm

Question: And the zone of inhibition at 50 µg/disc [10]?
Answer: 16 mm

Question: What about the zone of inhibition at 100 µg/disc [10] of the same compound?
Answer: 17 mm

Question: With `Cn1c(/C=C\CNC(=O)c2cc(Br)c[nH]2)cnc1N` [Keramidine] as the compound, how does the “serotonergic receptor activity” value [11] read?
Answer: serotonergic receptor antagonist

Question: With `Nc1ncc(C2c3nc(N)[nH]c3CC(CNC(=O)c3cc(Br)c(Br)[nH]3)C2CNC(=O)c2cc(Br)c(Br)[nH]2)[nH]1` (centres unmarked) [Compound 6a, Dibromoageliferin Acetate] as the compound, how does the zone of inhibition at 20 µg/disc [4, 16] read?
Answer: 8 to 10 mm

Question: What about the zone of inhibition at 50 µg/disc [4, 16] of the same compound?
Answer: 11 to 15 mm

Question: What about the zone of inhibition at 100 µg/disc [4, 16] of the same compound?
Answer: 11 to 15 mm

Question: And the zone of inhibition at 200 µg/disc [4, 16]?
Answer: 11 to 15 mm

Question: What about the zone of inhibition at 20 µg/disc [4, 17] of the same compound?
Answer: 9 mm

Question: And the zone of inhibition at 50 µg/disc [4, 17]?
Answer: 11 mm

Question: What about the zone of inhibition at 100 µg/disc [4, 17] of the same compound?
Answer: 11 mm

Question: And the zone of inhibition at 200 µg/disc [4, 17]?
Answer: 12 mm

Question: What about the “traces of cytotoxicity, zone” value ([12]; all concentrations (200, 100, 50, 20 μg/disk)) of the same compound?
Answer: ≤ 8 mm

Question: What about the “cytotoxicity, zone diameter” value ([5]; 25 μg/disk) of the same compound?
Answer: 6 mm

Question: And the “cytotoxicity, zone diameter” value ([5]; 50 μg/disk)?
Answer: 8 mm

Question: And the “cytotoxicity, zone diameter” value ([5]; 100 μg/disk)?
Answer: 10 mm

Question: What about the HSV-1 activity ([6]; 25 μg/disk) of the same compound?
Answer: -

Question: And the HSV-1 activity ([6]; 50 μg/disk)?
Answer: ±

Question: What about the HSV-1 activity ([6]; 100 μg/disk) of the same compound?
Answer: ±

Question: And the “BIA activity, numerical color intensity scale 0-10” value [7]?
Answer: 2

Question: And the zone of inhibition at 20 µg/disc [8, 18]?
Answer: < 7 mm

Question: And the zone of inhibition at 50 µg/disc [8, 18]?
Answer: 8 to 10 mm

Question: And the zone of inhibition at 100 µg/disc [8, 18]?
Answer: 8 to 10 mm

Question: What about the zone of inhibition at 200 µg/disc [8, 18] of the same compound?
Answer: 8 to 10 mm

Question: What about the zone of inhibition at 20 µg/disc [8, 19] of the same compound?
Answer: 0 mm

Question: What about the zone of inhibition at 50 µg/disc [8, 19] of the same compound?
Answer: 8 mm

Question: And the zone of inhibition at 100 µg/disc [8, 19]?
Answer: 9 mm

Question: What about the zone of inhibition at 200 µg/disc [8, 19] of the same compound?
Answer: 10 mm

Question: What about the zone of inhibition at 10 µg/disc ([9]; 10 μg/disk) of the same compound?
Answer: 0 mm

Question: What about the zone of inhibition at 50 µg/disc [9] of the same compound?
Answer: 7 mm

Question: What about the zone of inhibition at 100 µg/disc ([9]; 100 μg/disk) of the same compound?
Answer: 7 mm

Question: What about the zone of inhibition at 10 µg/disc ([10]; 10 μg/disk) of the same compound?
Answer: 8 mm

Question: And the zone of inhibition at 50 µg/disc [10]?
Answer: 9 mm

Question: What about the zone of inhibition at 100 µg/disc [10] of the same compound?
Answer: 9 mm

Question: What does the source list for `NC1=NC(=O)C(C2C(CNC(=O)c3ccc[nH]3)C(CNC(=O)c3cc(Br)c[nH]3)C2c2cnc(N)[nH]2)N1` (centres unmarked) [Compound 7a, Debromooxysceptrin Acetate]?
Answer: VSV activity [13]: ±; stability [14]: stable; activity against HSV-1 [4]: essentially inactive; antiviral zone appearance [4]: diffuse zones; zone of inhibition at 20 µg/disc [4, 16]: < 7 mm; zone of inhibition at 50 µg/disc [4, 16]: < 7 mm; zone of inhibition at 100 µg/disc [4, 16]: < 7 mm; zone of inhibition at 200 µg/disc [4, 16]: 8 to 10 mm; zone of inhibition at 20 µg/disc [4, 17]: 0 mm; zone of inhibition at 50 µg/disc [4, 17]: 0 mm; zone of inhibition at 100 µg/disc [4, 17]: 0 mm; traces of cytotoxicity, zone ([12]; 200 μg/disk): ≤ 8 mm; cytotoxicity, zone diameter ([5]; 25 μg/disk): 5 mm; cytotoxicity, zone diameter ([5]; 50 μg/disk): 5 mm; cytotoxicity, zone diameter ([5]; 100 μg/disk): 6 mm; HSV-1 activity ([6]; 25 μg/disk): -; HSV-1 activity ([6]; 50 μg/disk): -; HSV-1 activity ([6]; 100 μg/disk): -; BIA activity [7]: somewhat less active; BIA activity, numerical color intensity scale 0-10 [7]: 4; BIA zone appearance [7]: more diffuse zone; activity against VSV ([8]; 200 μg/disk): essentially inactive; zone of inhibition at 200 µg/disc [8, 18]: < 7 mm; zone of inhibition at 200 µg/disc [8, 19]: 0 mm; activity against Escherichia coli ([9]; 100 μg/disk): inactive; zone of inhibition at 10 µg/disc ([9]; 10 μg/disk): 0 mm; zone of inhibition at 50 µg/disc [9]: 0 mm; zone of inhibition at 100 µg/disc ([9]; 100 μg/disk): 0 mm; zone of inhibition at 10 µg/disc ([10]; 10 μg/disk): 0 mm; zone of inhibition at 50 µg/disc [10]: 7 mm; zone of inhibition at 100 µg/disc [10]: 8 mm; water solubility [15]: more water soluble
